The values that follow come from PMC12021087, “RFWD3 Reprograms Nucleotide Metabolism Through PHGDH to Induce Chemoresistance In Osteosarcoma” (Advanced Science, 2025).

The target of this assay is T1, RFWD3 (Ring Finger and WD Repeat Domain 3) (Homo sapiens, UniProt Q6PCD5).
T1 construct: endogenous full-length protein in whole lysate of 143B osteosarcoma cells, no tag
T1 sequence (Q6PCD5 1-774): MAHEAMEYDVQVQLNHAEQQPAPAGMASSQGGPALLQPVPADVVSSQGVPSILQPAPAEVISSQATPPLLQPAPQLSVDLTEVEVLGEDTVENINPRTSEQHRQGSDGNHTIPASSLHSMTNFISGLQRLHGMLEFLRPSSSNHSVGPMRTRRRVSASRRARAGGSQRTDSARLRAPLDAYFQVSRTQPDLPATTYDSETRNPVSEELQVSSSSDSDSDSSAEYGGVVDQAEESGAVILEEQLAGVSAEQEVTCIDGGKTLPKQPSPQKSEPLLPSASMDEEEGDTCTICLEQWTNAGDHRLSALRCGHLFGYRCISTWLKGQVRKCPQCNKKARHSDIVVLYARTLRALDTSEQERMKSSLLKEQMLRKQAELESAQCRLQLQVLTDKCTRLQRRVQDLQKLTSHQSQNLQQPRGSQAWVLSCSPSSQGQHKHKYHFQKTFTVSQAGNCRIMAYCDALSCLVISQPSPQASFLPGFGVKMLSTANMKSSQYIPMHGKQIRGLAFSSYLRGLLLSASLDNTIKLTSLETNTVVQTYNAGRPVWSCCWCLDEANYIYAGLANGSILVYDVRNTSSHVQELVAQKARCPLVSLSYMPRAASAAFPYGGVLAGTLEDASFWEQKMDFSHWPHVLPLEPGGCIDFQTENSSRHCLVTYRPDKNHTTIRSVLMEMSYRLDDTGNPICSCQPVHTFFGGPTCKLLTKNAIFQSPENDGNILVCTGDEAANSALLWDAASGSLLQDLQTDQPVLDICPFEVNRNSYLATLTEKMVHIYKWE
Briefly: CETSA (lysate, Western blot) and DARTS (pronase). The assay is classed as biochemical. Conditions: 143B cell lysate; CETSA 10 µM lomitapide, 1 h room temperature, heated 5 min; DARTS 1 and 10 µM lomitapide, 4 h, pronase 2 µg/mL. In general terms: Immunoblotting shows a protein as a band on a membrane.

As to `O=C(NC1CCN(CCCCC2(C(=O)NCC(F)(F)F)c3ccccc3-c3ccccc32)CC1)c1ccccc1-c1ccc(C(F)(F)F)cc1` [lomitapide], the “CETSA (lysate, Western blot) and DARTS (pronase)” value is “lomitapide protected RFWD3 from pronase degradation and significantly enhanced its thermal stability”.
